Experimental data taken from ChEMBL document CHEMBL2203155, “Structure-based discovery of C-2 substituted imidazo-pyrrolopyridine JAK1 inhibitors with improved selectivity over JAK2” (Bioorg Med Chem Lett, 2012).
Converted amounts (≈) assume the structure as drawn.

What was measured:
[1] = target: T1, Tyrosine-protein kinase JAK1 (Homo sapiens, UniProt P23458); type: cell-based, TF-1
[2] = Selectivity ratio of Ki for JAK2 kinase domain to Ki for JAK1 kinase domain
[3] = target: T1, Tyrosine-protein kinase JAK1
[4] = Oral bioavailability in Sprague-Dawley rat at 2 mg/kg administered as suspension; type: ADME, organism-based; conditions: in vivo
[5] = AUC in Sprague-Dawley rat at 2 mg/kg, po administered as suspension; type: ADME, organism-based; design: dose 2 mg/kg, route oral; conditions: plasma
[6] = Half life in Sprague-Dawley rat at 0.4 mg/kg, iv administered as bolus dose; type: ADME, organism-based; design: dose 0.4 mg/kg, route intravenous; conditions: in vivo
[7] = Volume of distribution at steady state in Sprague-Dawley rat at 0.4 mg/kg, iv administered as bolus dose; type: ADME, organism-based; design: dose 0.4 mg/kg, route intravenous; conditions: in vivo, read-out: Vdss
[8] = Clearance in Sprague-Dawley rat at 0.4 mg/kg, iv administered as bolus dose; type: ADME, organism-based; design: dose 0.4 mg/kg, route intravenous; conditions: in vivo
[9] = target: Macrophage colony-stimulating factor 1 receptor (Homo sapiens) (UniProt P07333); assay: Inhibition of CSF1R at 0.1 uM
Macrophage colony-stimulating factor 1 receptor (Homo sapiens), sequence (P07333 whole entry): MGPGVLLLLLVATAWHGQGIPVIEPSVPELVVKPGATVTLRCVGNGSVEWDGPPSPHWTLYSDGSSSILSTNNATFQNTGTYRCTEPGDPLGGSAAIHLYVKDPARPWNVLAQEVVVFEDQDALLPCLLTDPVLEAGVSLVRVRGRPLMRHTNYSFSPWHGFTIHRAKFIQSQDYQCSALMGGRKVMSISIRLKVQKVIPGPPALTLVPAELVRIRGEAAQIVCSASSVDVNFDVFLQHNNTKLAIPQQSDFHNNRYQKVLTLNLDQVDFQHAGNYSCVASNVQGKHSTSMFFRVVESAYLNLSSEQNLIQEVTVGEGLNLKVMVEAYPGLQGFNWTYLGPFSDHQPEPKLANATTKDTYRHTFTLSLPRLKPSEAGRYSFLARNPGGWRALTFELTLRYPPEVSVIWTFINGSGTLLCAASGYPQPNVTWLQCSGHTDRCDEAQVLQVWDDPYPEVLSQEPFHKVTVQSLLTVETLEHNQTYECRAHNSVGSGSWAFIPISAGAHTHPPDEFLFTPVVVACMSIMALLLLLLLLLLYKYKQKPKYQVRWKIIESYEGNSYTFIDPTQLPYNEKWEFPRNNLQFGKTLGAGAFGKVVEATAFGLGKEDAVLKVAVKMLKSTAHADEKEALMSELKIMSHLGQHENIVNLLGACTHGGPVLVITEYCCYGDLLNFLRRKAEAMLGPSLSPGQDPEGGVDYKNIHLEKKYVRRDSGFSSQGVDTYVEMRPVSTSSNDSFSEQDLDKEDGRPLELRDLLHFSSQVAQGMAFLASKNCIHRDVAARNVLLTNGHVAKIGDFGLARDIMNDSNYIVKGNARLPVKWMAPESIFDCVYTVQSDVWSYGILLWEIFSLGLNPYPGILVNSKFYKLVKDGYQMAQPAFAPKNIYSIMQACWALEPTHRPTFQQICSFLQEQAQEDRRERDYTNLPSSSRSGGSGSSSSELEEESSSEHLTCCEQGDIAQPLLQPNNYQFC

[10] = target: Leucine-rich repeat serine/threonine-protein kinase 2 (Homo sapiens) (UniProt Q5S007); assay: Inhibition of LRRK2 at 0.1 uM
[11] = target: Cytochrome P450 2D6 (Homo sapiens, UniProt P10635); assay: Inhibition of CYP2D6; type: ADME
Cytochrome P450 2D6, sequence (P10635 whole entry): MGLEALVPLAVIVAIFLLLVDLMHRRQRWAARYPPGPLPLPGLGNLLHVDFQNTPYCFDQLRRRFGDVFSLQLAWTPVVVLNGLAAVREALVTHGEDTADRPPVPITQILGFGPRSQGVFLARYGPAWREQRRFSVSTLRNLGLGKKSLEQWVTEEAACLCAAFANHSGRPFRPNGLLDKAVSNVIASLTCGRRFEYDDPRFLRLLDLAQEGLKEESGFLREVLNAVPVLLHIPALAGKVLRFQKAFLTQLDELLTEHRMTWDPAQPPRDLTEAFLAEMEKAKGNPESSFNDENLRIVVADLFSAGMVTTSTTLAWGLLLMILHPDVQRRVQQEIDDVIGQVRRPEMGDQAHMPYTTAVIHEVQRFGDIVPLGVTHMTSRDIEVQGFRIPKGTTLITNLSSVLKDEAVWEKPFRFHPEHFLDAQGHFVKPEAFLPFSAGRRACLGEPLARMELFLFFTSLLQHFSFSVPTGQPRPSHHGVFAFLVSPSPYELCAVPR

[12] = target: Cytochrome P450 2C19 (Homo sapiens, UniProt P33261); assay: Inhibition of CYP2C19; type: ADME
Cytochrome P450 2C19, sequence (P33261 whole entry): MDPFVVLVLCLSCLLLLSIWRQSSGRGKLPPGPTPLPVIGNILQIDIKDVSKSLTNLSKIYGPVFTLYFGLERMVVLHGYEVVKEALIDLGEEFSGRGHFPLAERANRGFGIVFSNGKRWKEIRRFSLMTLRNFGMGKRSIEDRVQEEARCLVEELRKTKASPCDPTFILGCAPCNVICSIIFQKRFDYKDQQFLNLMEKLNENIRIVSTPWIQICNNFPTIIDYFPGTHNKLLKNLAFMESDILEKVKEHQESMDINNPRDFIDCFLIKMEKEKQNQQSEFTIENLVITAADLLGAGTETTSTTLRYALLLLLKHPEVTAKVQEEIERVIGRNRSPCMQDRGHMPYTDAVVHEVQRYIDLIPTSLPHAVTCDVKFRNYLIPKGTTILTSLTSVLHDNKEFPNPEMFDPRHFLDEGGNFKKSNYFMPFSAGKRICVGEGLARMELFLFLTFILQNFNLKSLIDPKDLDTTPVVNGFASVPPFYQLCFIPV

[13] = target: Cytochrome P450 3A4 (Homo sapiens, UniProt P08684); assay: Inhibition of CYP3A4; type: ADME
Cytochrome P450 3A4, sequence (P08684 whole entry): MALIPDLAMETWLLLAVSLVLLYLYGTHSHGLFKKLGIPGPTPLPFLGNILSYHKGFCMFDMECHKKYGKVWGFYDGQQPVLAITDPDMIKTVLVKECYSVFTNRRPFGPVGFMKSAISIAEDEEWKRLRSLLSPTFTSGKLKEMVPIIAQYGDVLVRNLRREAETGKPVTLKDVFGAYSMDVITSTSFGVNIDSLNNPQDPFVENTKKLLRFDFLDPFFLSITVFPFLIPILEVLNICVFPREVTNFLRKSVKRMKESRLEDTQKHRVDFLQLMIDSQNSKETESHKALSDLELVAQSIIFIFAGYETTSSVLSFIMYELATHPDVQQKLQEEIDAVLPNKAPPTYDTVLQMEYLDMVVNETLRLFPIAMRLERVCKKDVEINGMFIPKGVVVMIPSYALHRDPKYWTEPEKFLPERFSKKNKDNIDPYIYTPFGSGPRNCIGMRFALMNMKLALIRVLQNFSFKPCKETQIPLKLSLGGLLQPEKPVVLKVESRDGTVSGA

[14] = target: Cytochrome P450 2C9 (Homo sapiens, UniProt P11712); assay: Inhibition of CYP2C9; type: ADME
Cytochrome P450 2C9, sequence (P11712 whole entry): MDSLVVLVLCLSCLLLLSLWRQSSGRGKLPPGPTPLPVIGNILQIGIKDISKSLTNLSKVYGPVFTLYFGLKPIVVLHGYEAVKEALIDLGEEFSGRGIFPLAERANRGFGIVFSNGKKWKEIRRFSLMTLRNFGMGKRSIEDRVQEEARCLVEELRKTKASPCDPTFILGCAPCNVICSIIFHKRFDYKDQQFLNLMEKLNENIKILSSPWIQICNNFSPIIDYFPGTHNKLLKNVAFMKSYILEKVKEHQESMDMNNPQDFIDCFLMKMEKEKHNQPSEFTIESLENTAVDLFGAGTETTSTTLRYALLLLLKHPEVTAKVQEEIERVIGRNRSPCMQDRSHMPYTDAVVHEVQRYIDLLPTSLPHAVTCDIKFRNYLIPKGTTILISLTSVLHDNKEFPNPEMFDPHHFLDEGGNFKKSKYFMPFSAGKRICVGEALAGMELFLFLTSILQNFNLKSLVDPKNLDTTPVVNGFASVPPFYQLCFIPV

[15] = target: T2, Cytochrome P450 1A2 (Homo sapiens, UniProt P05177); assay: Inhibition of CYP1A2; type: ADME
T2 sequence (P05177 whole entry): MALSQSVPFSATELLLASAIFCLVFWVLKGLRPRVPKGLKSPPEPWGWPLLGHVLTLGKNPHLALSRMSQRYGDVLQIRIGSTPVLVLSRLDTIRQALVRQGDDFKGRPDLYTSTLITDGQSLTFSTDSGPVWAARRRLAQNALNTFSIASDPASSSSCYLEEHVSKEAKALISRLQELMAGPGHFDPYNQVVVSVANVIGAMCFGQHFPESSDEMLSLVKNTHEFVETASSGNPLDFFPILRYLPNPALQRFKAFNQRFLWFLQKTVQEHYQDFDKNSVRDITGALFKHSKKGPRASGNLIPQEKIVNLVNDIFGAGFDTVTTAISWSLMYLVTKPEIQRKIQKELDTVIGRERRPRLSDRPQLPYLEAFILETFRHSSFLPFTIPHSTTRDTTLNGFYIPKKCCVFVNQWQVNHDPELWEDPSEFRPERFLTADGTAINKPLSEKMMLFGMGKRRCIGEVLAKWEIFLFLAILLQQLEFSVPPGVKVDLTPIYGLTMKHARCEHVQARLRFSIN

[16] = Apparent permeability from apical to basal side of MDCK cells; type: ADME, cell-based, Canis lupus familiaris; conditions: dog
[17] = Aqueous solubility of the compound; type: physicochemical; conditions: buffer

T1 sequence (P23458 whole entry, the tested form may be a part): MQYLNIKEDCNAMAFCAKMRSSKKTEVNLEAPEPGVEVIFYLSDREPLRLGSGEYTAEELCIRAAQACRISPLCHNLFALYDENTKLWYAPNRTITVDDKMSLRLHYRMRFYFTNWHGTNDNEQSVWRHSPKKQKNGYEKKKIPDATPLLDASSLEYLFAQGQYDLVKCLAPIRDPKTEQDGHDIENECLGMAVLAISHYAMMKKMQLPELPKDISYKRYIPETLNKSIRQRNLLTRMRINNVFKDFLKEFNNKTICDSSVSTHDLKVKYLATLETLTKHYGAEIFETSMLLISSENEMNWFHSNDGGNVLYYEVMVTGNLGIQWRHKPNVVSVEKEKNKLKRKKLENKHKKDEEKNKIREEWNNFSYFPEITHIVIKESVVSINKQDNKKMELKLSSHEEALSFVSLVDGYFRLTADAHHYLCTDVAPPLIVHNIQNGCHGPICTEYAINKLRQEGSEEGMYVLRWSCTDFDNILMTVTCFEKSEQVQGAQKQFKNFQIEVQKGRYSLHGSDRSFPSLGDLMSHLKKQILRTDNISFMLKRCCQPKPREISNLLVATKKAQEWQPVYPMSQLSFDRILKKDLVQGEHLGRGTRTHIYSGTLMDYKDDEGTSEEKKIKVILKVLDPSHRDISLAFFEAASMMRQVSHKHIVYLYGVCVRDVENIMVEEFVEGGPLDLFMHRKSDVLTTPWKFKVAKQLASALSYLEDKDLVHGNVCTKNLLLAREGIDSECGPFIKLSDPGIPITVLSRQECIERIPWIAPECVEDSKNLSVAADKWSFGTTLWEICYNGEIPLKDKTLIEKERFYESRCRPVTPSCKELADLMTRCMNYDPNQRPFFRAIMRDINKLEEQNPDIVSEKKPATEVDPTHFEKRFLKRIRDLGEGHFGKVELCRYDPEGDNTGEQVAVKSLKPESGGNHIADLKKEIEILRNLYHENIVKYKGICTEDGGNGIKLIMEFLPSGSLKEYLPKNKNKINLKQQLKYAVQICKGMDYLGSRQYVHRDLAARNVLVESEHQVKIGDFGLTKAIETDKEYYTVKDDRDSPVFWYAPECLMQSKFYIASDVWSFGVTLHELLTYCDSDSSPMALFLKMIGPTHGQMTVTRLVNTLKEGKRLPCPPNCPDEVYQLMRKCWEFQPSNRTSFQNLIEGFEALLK

EC50 [1] | Ratio Ki [2] | Ki [3] | Compound | further results
1800 nM | 2.6 | 14 nM | N#CCCN1CCC(n2c(CCn3cccn3)nc3cnc4[nH]ccc4c32)CC1 | –
210 nM | – | – | CC(=O)NCCc1nc2cnc3[nH]ccc3c2n1C1CCCCC1 | –
4200 nM | 8 | 28 nM | CS(=O)(=O)NCc1nc2cnc3[nH]ccc3c2n1C1CC2CCC1O2 (racemic) | –
1500 nM | 6.7 | 12 nM | CC(=O)NCc1nc2cnc3[nH]ccc3c2n1C1CCN(CC(F)(F)F)CC1 | –
410 nM | 4.2 | 9.1 nM | CC(C)c1nc2cnc3[nH]ccc3c2n1C1CCN(CCC#N)CC1 | –
> 6500 nM | 5.6 | 3.7 nM | CC(=O)NCCc1nc2cnc3[nH]ccc3c2n1C1CCN(CCC#N)CC1 | –
– | – | – | CS(=O)(=O)NCc1nc2cnc3[nH]ccc3c2n1[C@@H]1C[C@H]2CC[C@@H]1C2 | bioavailability [4]: 79%; AUC [5]: 2.2 µM·h; half-life [6]: 1.5 h; Vd [7]: 4 L/kg; clearance [8]: 33 mL/min/kg; inhibition [9]: > 50%; inhibition [10]: > 50%; IC50 [11]: > 10000 nM; IC50 [12]: > 10000 nM; IC50 [13]: > 10000 nM; IC50 [14]: > 10000 nM; IC50 [15]: > 10000 nM; Papp A→B [16]: 8.2 ×10⁻⁶ cm/s; solubility [17]: 71 µM (≈ 25.5 µg/mL)
2600 nM | 7.6 | 13 nM | Cn1ccc(CCc2nc3cnc4[nH]ccc4c3n2C2CCN(CCC#N)CC2)n1 | –
2600 nM | 4.8 | 43 nM | N#CCCN1CCC(n2c(CC3CCOCC3)nc3cnc4[nH]ccc4c32)CC1 | –
> 6000 nM | 7 | 1.7 nM | CS(=O)(=O)NCCc1nc2cnc3[nH]ccc3c2n1C1CCN(CCC#N)CC1 | –
1200 nM | 11 | 5.4 nM | CC(C)CS(=O)(=O)NCc1nc2cnc3[nH]ccc3c2n1C1CCN(CCC#N)CC1 | –
160 nM | 8.4 | 3 nM | CC(=O)NCc1nc2cnc3[nH]ccc3c2n1C1CC2CCC1C2 (racemic) | –
50 nM | 10 | 0.6 nM | CS(=O)(=O)NCCc1nc2cnc3[nH]ccc3c2n1C1CC2CCC1C2 (racemic) | –
430 nM | 3.6 | 4.3 nM | N#CCCN1CCC(n2c(C3CCC3)nc3cnc4[nH]ccc4c32)CC1 | –
1300 nM | 1.5 | 24 nM | N#CCCN1CCC(n2c(CC3CCCO3)nc3cnc4[nH]ccc4c32)CC1 (racemic) | –
275 nM | 2.1 | 4.6 nM | CCCc1nc2cnc3[nH]ccc3c2n1C1CCN(CCC#N)CC1 | –
> 3800 nM | 5.4 | – | CC(=O)NCc1nc2cnc3[nH]ccc3c2n1C1CCN(CCC#N)CC1 | –
625 nM | 3.6 | 8.4 nM | CCOC(=O)NCc1nc2cnc3[nH]ccc3c2n1C1CCN(CCC#N)CC1 | –
570 nM | 5.4 | 8.7 nM | N#CCCN1CCC(n2c(CCC3CCCO3)nc3cnc4[nH]ccc4c32)CC1 (racemic) | –
160 nM | 1.8 | – | N#CCCN1CCC(n2c(C3CC3)nc3cnc4[nH]ccc4c32)CC1 | –
2000 nM | 4.5 | 16 nM | N#CCCN1CCC(n2c(CC3CCCC3)nc3cnc4[nH]ccc4c32)CC1 | –
